Source: US20140011811A1, “MYOSIN BINDING PROTEIN-C FOR USE IN METHODS RELATING TO DIASTOLIC HEART FAILURE” (The United States Government as represented by the …, priority 2011, published 2014)

Legend:
[1] = test system: DOCA-salt mice; experiment: Echocardiography (mitral pulse wave Doppler flow and tissue Doppler imaging) in DOCA-salt mouse model of diastolic dysfunction; type: in vivo; conditions: DOCA-salt+BH4 mice, BH4 supplemental diet 5 mg BH4/day, postoperative day 11 to 18, echocardiography day 18
Description: Previously, we have shown that the DOCA-salt mouse model leads to mild hypertension, NOS uncoupling, myocardial oxidative stress, and diastolic dysfunction. A gradual and mild elevation in blood pressure was induced by unilateral nephrectomy, subcutaneous implantation of a controlled release deoxycorticosterone acetate (DOCA) pellet (0.7 mg/d; Innovative Research of America, Sarasota, Fla.), and substituting drinking water with 1.05% saline. Control animals underwent a sham operation, had placebo pellet implantation, and received water without salt.
Mice were divided into two groups which received a control diet (sham N=7; DOCA-salt N=10) and two groups which received a BH4 supplemental diet of 5 mg BH4/day (Research Diets Inc, New Brunswick, N.J.; sham+BH4 N=8; DOCA-salt+BH4 N=8). The supplemental diet began on day 11 after surgery, and continued until day 18, when the mice were analyzed and sacrificed.
Ten days after surgery, we employed echocardiography to characterize the diastolic dysfunction. […] The images for each mouse were recorded for at least 5 s (30-40 cardiac cycles) from which three to five representative cycles with the highest quality imaging were selected. Percent fractional shortenin (% FS) were calculated as 100×(LVEDd)-(LVESd)/(LVEDd) and percent LV ejection fraction (%EF) was calculated as 100×[(7/2.4+LVEDd)×LEDd^3]−[(7/2.4+LVESd)×LVESd^3]/[(7/2.4+LVEDd)×LEDd^3]. […]

[2] = test system: myosin binding protein C (MyBP-C); experiment: Western immunoblotting of S-glutathionylation of MyBP-C in cardiac myofilaments from treated DOCA-salt and sham mice; type: in vivo, mouse; conditions: chronic ranolazine diet (~1 g/day tablet with 5 mg ranolazine and 0.3 mg P450 inhibitor), postoperative day 11 to 18
Description: Chronic Administration of Ranolazine: A special diet contained 5 mg ranolazine, 0.3 mg P450 inhibitor, and 0.25 mg red food color was pressed into a 1-g nutritionally complete grain-based tablet (Harlan, Madison, Wis.). The control diet contained 0.3mg P450 inhibitor and 0.25 mg yellow food color pressed into the same type of 1-g tablets. DOCA-salt and sham mice consumed daily ˜1g of the special diet from postoperative day 11 to 18. Western blot analysis was used to detect for glutathionylated proteins. […] Using the protein concentration determined from an RC-DC (Bio-Rad) assay, 40 μg of total protein was applied to 1D 12% resolving SDS-PAGE gel and transferred onto a 0.2 μM Polyvinylidene fluoride (PVDF) membrane. […] Anti-glutathione mouse monoclonal primary antibody (Virogen, Watertown, Mass.) was used at 1:1000 dilution along with anti-mouse HRP-conjugated secondary antibody (Sigma) at 1:100,000 dilution to detect for S-glutathionylation.10 Optical density of the bands was measured with ImageQuant TL (GE Healthcare) and exported to Excel for further analysis. […] Using the protein concentration determined from an RC-DC (Bio-Rad) assay, 40 µg of total protein was applied to a 12% SDS-PAGE gel and transferred onto a 0.2 pm PVDF membrane. […] Optical density of the bands was measured with ImageQuant TL (GE Healthcare) and exported to Excel for further analysis. […]

[3] = test system: MyBP-C; experiment: Pro-Q Diamond gel stain of phosphorylation of MyBP-C in myofibrils from treated DOCA-salt and sham mice; type: in vivo, mouse; conditions: DOCA-salt or sham mice treated as in Examples 1 and 2
Description: DOCA-salt or sham mice were administered ranolazine or BH4 as essentially described in Examples 1 and 2, respectively. Pro-Q Diamond (Invitrogen) gel stain was used to detect changes in phosphorylation states of MyBP-C. Myofibrils were prepared from DOCA-salt and sham models of the mice hearts, and pellets were solubilized in a non-reducing 2× laemmli buffer (4% SDS, 20% glycerol, 0.004% bromophenol blue, and 0.125 M Tris HCl pH 6.8). 25 mM N-ethylmaleimide (NEM) was added to the standard rigor buffer with Triton X-100, the standard rigor wash buffer, and the 2× Laemmli buffer. An RC-DC assay (BioRad) was used to determine protein concentrations. Samples were diluted at 1:1 ratio in reducing sample buffer (8 M urea, 2 M thiourea, 0.05 M tris pH 6.8, 75 mM DTT, 3% SDS, and 0.05% bromophenol blue and approximately 10 μg of protein was loaded on to a 12% resolving 1D SDS-PAGE gel. The gels were stained and destained with Pro-Q Diamond according to the manufacturer's recommendations prior to the imaging with a Typhoon 9410 scanner (GE Healthcare). Coomassie R-250 staining was used to normalize protein load to both actin and the whole lane. Optical density of the proteins was determined using ImageQuant TL (GE Healthcare) software and results were exported to Excel for further analysis.

SMILES | ratio of E′A′ (mitral tissue Doppler E′/A′) ([1]; vs. DOCA-salt 0.74±0.05, P<0.001) | E/E′ ratio, a measure of left atrial pressure ([1]; vs. DOCA-salt 43.7±2.7, P<0.01) | MyBP-C glutathionylation [2] | phosphorylation levels of MyBP-C [3]
C[C@H](O)[C@H](O)[C@H]1CNc2nc(N)[nH]c(=O)c2N1 [BH4, tetrahydrobiopterin] | 1.12±1.10 | 34.5±2.2 | – | –
COc1ccccc1OCC(O)CN1CCN(CC(=O)Nc2c(C)cccc2C)CC1 (stereo not shown) [ranolazine] | – | – | regressed level | did not affect
